Reference: ChEMBL document CHEMBL1201862, “PubChem BioAssay data set” (2004)
Activity calls are given as the source filed them.

How the values were obtained:
[1] = biological target: SWI/SNF-related matrix-associated actin-dependent regulator of chromatin subfamily A member 2 (Homo sapiens, UniProt P51531); experiment: Luminescence-based cell-based high throughput dose response assay to identify activators of the function of SWI/SNF related, matrix associated, actin dependent regulator of chromatin, subfamily a, member 2 (SMARCA2, BRM).; format: functional
[2] = Counterscreen for activators of the function of SWI/SNF related, matrix associated, actin dependent regulator of chromatin, subfamily a, member 2 (SMARCA2, BRM): Luminescence-based cell-based high throughput dose response assay to identify non-selective compounds using the VP16 reporter assay.; format: functional
cells [3] = format: functional, cell-based
[4] = biological target: DNA (cytosine-5)-methyltransferase 1 (Homo sapiens, UniProt P26358); experiment: inhibition of DNA methylation by DNMT1 – biochemical, fluorescent molecular beacon, confirmation (AID 602386); format: functional
INS1 = experiment: INS-1E survival protection against cytokine death – cell-based, luminescence, retest, dose response (AID 449756); format: functional; details: Rattus norvegicus;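 further: cell death triggered by IL-1 beta plus TNF-alpha plus IFN-gamma mixture; protective hits raise ATP signal compared with cytokine alone wells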
cells [5] = format: functional, cell-based; remark: listed apart in the source
Melanocortin receptor 4 = Melanocortin receptor 4 (Homo sapiens, UniProt P32245); experiment: inhibitors of MC4R cAMP signaling – cell-based, TR-FRET, biased antagonists, dose response (AID 602298); format: functional;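 further: antagonist potency against agonist-stimulated cAMP production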
Beta-galactosidase = Beta-galactosidase (Escherichia coli, UniProt Q8VNN2); experiment: Dose response counterscreen for EBI2 assay utilizing the enzyme, b-galactosidase.; format: functional
[6] = biological target: T1, Heat shock factor protein 1 (Mus musculus, UniProt P38532); experiment: enhancement of HSF1-driven luciferase signal – cell-based, NIH3T3, luminescence, dose retest, confirmation (AID 435004); format: functional;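 further: stress induced by proteasome inhibitor MG132 added 30 min after compound; luciferase reporter driven by HSF1 response element in NIH3T3 cells; actives raise luminescence as potentiators of the MG132 stress response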
T1 sequence (P38532 whole entry): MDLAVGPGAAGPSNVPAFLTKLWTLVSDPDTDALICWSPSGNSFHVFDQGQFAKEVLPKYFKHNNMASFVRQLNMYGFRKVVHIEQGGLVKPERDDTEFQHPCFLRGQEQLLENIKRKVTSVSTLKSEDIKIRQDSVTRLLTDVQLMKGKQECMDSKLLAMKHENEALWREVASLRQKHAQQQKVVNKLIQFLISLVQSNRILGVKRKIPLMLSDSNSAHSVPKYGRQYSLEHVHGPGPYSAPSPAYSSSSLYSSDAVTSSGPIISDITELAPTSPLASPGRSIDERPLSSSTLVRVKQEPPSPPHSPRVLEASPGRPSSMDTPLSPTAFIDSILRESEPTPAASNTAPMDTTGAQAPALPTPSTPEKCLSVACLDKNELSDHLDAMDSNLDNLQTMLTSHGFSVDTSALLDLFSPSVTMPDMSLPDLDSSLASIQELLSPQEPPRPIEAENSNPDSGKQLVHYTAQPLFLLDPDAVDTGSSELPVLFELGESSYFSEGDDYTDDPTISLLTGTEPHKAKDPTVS

[7] = cAMP pathway inhibition in counterscreen cell line – TR-FRET cAMP detection, counter-screen for MC4R biased antagonist project, dose response (AID 602305); format: functional, cell-based;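 further: U2OS cells stimulated with forskolin near its EC80 as the cAMP inducer; potency is for inhibition of forskolin-stimulated cAMP signaling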
[8] = biological target: Mitogen-activated protein kinase 12 (Homo sapiens, UniProt P53778); format: functional;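 further: measured as one member of a kinome-wide kinase profiling panel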
[9] = biological target: Testis-specific serine/threonine-protein kinase 2 (Homo sapiens, UniProt Q96PF2); format: functional;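 further: part of the Navigating the Kinome panel, target entry STK22B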
[10] = biological target: Cell division cycle 7-related protein kinase (Homo sapiens, UniProt O00311); format: functional;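 further: value obtained from a kinome-wide kinase panel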
[11] = nonselective StAR promoter luciferase inhibitors – cell-based, luminescence, luciferase reporter, counter-screen for LRH-1 inverse agonist project, dose response (AID 651969); format: functional
Steroidogenic factor 1 = Steroidogenic factor 1 (Homo sapiens, UniProt Q13285); experiment: Counterscreen for inverse agonists of the liver receptor homolog-1 (LRH-1; NR5A2): Luminescence-based cell-based high throughput dose response assay to identify inverse agonists of the Steroidogenic Factor 1 Nuclear Receptor (SF1; NR5A1).; format: functional
[12] = biological target: Nuclear receptor subfamily 5 group A member 2 (Homo sapiens, UniProt O00482); format: functional, cell-based;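 further: HEK293T cells transfected with LRH-1 and a StAR promoter luciferase reporter; potency for inhibitors that lower LRH-1 driven reporter light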
[13] = biological target: Tyrosine-protein phosphatase non-receptor type 11 (Homo sapiens, UniProt Q06124); experiment: PTPN11 enzyme inhibitors – biochemical, selectivity assay for STEP inhibitor project, dose response (AID 602367); format: functional; details: read-out: IC50_Mean
[14] = biological target: Dual specificity protein phosphatase 3 (Homo sapiens, UniProt P51452); experiment: VHR phosphatase inhibition, dose response, selectivity assay for STEP inhibitor project, biochemical (AID 602374); format: functional; details: read-out: IC50_Mean
[15] = biological target: Tyrosine-protein phosphatase non-receptor type 5 (Homo sapiens, UniProt P54829); experiment: PTPN5 enzyme inhibition – biochemical, fluorescence intensity, uHTS hits, confirmation (AID 602372); format: functional; details: read-out: IC50_Mean
cells [16] = format: functional
[17] = bead-based luminescence quenchers, dual-tagged ARNT – biochemical, AlphaScreen, cherry-pick, artefact control for ARNT-TACC3 interaction inhibitor project, dose response (AID 651705); format: functional;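 further: AlphaScreen bead proximity signal that flags compounds interfering with the detection technology; potency reflects signal decrease which marks the compound as an assay artifact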
[18] = Vero E6 cell cytotoxicity, dose response, cytotoxicity control for non-replicating M. tuberculosis project, secondary assay (AID 492998); format: functional, VeroE6; details: Vero C1008
[19] = THP-1 cell cytotoxicity, dose response, cytotoxicity control for non-replicating M. tuberculosis project (AID 489025); format: functional
[20] = biological target: Potassium voltage-gated channel subfamily KQT member 2 (Rattus norvegicus, UniProt O88943); experiment: blockers of KCNQ2 channel current – cell-based, automated electrophysiology, set II, rat KCNQ2, dose response (AID 588637); format: functional
[21] = biological target: T2, Tyrosine-protein phosphatase non-receptor type 22 (Homo sapiens, UniProt Q9Y2R2); experiment: PTPN22 enzyme inhibitors – biochemical, fluorescence, LYP catalytic domain, selectivity assay for LMPTP inhibitor project, dose response (AID 652006); format: functional; details: read-out: IC50_Mean
T2 sequence (Q9Y2R2 whole entry): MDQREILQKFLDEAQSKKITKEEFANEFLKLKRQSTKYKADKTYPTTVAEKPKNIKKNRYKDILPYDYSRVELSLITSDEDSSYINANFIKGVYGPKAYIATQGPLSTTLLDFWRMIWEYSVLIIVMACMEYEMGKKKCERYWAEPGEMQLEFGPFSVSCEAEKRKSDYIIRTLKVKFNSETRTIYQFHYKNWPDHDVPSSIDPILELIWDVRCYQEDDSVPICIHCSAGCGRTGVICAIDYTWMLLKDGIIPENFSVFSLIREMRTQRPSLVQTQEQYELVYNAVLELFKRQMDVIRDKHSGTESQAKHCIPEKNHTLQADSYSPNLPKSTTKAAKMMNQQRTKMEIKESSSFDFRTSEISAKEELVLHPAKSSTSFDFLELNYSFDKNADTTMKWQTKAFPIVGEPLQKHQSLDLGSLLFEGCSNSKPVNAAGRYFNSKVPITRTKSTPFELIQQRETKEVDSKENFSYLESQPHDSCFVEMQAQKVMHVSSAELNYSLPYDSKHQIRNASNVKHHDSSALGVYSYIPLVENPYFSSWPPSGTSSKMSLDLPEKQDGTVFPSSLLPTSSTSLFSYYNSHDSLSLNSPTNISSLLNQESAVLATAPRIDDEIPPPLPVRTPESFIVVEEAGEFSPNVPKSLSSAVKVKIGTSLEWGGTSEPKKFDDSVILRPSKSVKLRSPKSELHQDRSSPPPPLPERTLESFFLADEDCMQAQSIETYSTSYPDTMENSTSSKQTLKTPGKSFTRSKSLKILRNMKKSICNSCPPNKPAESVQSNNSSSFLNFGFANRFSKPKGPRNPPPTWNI

[22] = biological target: T3, Low molecular weight phosphotyrosine protein phosphatase (Homo sapiens, UniProt P24666); format: functional; details: read-out: IC50_Mean;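 further: Dose-response confirmation assay measuring inhibition of LMPTP enzyme activity by fluorescence intensity read-out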
T3 sequence (P24666 whole entry): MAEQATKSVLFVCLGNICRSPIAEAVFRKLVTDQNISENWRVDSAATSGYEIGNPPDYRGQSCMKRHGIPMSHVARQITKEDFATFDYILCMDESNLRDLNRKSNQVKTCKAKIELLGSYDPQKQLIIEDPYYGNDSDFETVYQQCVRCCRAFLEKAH

Interleukin-8 [23] = biological target: T4, Interleukin-8 (Homo sapiens, UniProt P10145); experiment: Dose Response confirmation of uHTS small molecule hits for cystic fibrosis induced NFkb Inhibitors in a TNFa-induced IL8 counterscreen.; format: functional; details: read-out: IC50_Mean
T4 sequence (P10145 whole entry): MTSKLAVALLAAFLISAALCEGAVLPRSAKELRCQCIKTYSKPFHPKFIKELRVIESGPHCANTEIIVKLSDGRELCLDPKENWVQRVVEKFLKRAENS

[24] = biological target: T5, Rac GTPase-activating protein 1 (Homo sapiens, UniProt Q9H0H5); experiment: blockers of MgcRacGAP-driven Rac1 GTP hydrolysis – biochemical, ADP Hunter fluorescence, primary and confirmatory, confirmation (AID 624330); format: functional
T5 sequence (Q9H0H5 whole entry): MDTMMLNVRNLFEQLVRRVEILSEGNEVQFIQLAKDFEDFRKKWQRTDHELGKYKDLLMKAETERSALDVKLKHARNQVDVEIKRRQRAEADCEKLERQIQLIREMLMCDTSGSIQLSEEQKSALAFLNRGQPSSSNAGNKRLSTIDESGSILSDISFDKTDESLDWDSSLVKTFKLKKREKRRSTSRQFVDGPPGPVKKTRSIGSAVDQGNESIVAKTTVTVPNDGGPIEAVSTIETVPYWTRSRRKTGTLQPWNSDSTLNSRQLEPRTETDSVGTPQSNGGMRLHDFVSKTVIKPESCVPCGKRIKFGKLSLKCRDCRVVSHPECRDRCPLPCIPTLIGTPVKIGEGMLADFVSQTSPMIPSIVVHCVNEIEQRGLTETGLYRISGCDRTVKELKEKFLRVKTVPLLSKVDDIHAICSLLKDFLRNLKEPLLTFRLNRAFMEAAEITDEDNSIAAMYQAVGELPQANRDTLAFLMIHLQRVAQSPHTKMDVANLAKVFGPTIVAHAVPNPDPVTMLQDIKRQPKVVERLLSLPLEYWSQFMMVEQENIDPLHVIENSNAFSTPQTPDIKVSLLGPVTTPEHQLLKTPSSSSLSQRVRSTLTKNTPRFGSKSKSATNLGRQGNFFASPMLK

Interleukin-8 [25] = biological target: T4, Interleukin-8; experiment: Dose Response confirmation of uHTS small molecule hits for cystic fibrosis induced NFkb Inhibitors in a PAF-induced IL8 counterscreen.; format: functional; details: read-out: IC50_Mean
[26] = biological target: T6, Aryl hydrocarbon receptor (Homo sapiens, UniProt P35869); details: Potency;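 further: confirmatory quantitative high-throughput screen measuring activation of the AhR signaling pathway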
T6 sequence (P35869 whole entry): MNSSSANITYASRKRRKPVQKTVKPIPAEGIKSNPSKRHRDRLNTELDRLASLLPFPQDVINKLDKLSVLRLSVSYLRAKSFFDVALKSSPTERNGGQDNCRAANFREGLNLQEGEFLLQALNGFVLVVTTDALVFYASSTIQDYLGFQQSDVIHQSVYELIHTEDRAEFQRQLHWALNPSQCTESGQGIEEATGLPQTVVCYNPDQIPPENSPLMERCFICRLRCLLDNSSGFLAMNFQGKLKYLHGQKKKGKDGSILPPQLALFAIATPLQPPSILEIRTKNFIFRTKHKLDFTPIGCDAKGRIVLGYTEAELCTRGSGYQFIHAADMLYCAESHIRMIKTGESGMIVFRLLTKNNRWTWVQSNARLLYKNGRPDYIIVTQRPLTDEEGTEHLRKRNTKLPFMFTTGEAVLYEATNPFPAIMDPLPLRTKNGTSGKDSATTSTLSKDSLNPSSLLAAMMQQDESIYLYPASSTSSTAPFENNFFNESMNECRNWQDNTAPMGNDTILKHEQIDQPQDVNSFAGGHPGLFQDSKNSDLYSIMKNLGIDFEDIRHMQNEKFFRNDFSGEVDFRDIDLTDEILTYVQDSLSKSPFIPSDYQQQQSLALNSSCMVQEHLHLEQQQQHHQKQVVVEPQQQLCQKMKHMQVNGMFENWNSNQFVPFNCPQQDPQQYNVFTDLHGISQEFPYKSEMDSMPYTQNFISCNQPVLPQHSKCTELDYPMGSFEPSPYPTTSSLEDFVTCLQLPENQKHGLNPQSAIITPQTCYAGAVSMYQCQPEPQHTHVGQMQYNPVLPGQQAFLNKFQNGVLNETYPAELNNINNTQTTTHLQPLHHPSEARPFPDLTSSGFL

[27] = biological target: Mitochondrial peptide methionine sulfoxide reductase (Bos taurus, UniProt P54149); format: functional;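 further: absorbance read-out, biochemical high-throughput dose-response screen for MsrA inhibitors, confirmatory; recombinant bovine MsrA coupled to E. coli TrxB with NADPH and selenocystamine; potency is for inhibitors of MsrA activity on DMSO substrate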

Sequence of SWI/SNF-related matrix-associated actin-dependent regulator of chromatin subfamily A member 2 (P51531 whole entry): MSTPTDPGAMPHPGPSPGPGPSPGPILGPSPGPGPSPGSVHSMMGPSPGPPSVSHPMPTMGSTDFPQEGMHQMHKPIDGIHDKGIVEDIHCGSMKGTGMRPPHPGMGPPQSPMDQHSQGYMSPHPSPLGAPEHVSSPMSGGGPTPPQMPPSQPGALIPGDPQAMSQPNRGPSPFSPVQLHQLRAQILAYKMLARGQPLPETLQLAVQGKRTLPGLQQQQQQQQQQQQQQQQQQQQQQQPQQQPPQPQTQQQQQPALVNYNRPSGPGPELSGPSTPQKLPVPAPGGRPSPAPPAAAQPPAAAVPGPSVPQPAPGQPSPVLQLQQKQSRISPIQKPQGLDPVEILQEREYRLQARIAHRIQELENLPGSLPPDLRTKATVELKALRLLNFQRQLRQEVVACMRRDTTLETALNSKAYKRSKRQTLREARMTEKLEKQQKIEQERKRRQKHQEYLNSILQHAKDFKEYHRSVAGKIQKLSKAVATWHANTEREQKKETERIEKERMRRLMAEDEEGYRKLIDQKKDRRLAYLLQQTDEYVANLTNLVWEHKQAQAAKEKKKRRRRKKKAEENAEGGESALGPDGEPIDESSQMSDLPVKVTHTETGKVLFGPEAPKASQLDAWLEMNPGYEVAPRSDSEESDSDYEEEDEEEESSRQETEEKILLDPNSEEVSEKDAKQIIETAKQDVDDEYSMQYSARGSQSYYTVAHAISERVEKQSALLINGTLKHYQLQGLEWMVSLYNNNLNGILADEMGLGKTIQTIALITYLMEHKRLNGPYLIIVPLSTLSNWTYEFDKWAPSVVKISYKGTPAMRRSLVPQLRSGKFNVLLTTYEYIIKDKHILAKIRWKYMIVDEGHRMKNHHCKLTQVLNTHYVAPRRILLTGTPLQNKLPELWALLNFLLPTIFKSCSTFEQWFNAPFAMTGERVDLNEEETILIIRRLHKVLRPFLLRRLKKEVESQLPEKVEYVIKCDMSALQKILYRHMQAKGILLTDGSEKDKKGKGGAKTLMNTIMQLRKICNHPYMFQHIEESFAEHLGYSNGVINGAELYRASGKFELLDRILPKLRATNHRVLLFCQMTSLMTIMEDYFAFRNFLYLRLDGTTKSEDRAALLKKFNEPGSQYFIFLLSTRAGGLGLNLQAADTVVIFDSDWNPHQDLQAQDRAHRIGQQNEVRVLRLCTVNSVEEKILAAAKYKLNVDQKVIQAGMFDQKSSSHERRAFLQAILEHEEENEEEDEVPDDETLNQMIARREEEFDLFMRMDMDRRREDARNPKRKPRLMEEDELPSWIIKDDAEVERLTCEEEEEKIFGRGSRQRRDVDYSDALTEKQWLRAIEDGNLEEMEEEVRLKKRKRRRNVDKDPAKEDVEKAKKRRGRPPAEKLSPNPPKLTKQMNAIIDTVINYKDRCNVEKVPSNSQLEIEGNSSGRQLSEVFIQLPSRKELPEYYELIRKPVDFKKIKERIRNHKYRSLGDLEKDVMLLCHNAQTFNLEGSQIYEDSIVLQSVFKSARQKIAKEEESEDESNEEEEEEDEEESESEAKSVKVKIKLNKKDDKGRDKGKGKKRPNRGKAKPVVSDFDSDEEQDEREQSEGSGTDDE
Sequence of Melanocortin receptor 4 (P32245 whole entry): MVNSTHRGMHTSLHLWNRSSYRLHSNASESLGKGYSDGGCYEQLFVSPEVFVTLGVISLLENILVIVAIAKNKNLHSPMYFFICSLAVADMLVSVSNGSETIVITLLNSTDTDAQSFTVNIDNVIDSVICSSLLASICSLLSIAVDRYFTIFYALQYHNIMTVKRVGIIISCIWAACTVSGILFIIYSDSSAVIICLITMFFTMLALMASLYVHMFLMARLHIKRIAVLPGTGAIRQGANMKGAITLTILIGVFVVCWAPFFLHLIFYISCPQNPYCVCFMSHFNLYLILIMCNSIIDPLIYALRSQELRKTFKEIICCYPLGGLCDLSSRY
Sequence of Steroidogenic factor 1 (Q13285 whole entry): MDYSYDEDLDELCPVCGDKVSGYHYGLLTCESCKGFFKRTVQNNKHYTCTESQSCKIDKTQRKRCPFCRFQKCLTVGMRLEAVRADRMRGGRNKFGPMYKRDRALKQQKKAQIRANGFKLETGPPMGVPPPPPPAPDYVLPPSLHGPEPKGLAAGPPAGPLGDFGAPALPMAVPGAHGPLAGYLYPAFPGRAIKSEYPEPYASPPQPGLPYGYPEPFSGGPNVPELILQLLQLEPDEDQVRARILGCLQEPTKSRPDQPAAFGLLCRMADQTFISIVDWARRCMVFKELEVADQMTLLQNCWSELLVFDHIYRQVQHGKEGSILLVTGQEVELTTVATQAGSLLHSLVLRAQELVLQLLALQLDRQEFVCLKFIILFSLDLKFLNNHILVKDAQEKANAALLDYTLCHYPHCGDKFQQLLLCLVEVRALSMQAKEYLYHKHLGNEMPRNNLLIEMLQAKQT
Sequence of Testis-specific serine/threonine-protein kinase 2 (Q96PF2 whole entry): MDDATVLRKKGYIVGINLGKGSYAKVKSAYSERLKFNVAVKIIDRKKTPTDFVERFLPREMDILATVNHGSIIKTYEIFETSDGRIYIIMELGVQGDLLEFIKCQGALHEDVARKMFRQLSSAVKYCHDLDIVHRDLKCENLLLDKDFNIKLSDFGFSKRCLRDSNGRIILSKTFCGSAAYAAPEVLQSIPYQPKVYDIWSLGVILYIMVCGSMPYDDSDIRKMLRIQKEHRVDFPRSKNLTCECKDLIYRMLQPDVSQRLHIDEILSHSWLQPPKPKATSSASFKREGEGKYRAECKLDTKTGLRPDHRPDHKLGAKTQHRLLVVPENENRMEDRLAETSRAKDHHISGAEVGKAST
Sequence of Tyrosine-protein phosphatase non-receptor type 11 (Q06124 whole entry): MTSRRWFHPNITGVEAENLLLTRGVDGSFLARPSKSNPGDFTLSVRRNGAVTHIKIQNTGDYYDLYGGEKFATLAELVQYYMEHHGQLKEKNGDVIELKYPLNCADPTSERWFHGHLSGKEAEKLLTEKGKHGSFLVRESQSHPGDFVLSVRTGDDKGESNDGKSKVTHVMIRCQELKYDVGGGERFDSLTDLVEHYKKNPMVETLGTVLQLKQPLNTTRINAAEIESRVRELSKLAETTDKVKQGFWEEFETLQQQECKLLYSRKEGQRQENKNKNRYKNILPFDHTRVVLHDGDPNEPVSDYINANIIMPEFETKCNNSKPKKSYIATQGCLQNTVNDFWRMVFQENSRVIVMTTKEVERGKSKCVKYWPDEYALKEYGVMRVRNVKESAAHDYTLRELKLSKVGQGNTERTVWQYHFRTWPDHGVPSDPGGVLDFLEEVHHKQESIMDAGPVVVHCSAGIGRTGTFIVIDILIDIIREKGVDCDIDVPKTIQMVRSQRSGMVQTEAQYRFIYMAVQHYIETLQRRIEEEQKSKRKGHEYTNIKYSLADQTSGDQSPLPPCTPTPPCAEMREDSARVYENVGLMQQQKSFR
Sequence of Beta-galactosidase (Q8VNN2 whole entry): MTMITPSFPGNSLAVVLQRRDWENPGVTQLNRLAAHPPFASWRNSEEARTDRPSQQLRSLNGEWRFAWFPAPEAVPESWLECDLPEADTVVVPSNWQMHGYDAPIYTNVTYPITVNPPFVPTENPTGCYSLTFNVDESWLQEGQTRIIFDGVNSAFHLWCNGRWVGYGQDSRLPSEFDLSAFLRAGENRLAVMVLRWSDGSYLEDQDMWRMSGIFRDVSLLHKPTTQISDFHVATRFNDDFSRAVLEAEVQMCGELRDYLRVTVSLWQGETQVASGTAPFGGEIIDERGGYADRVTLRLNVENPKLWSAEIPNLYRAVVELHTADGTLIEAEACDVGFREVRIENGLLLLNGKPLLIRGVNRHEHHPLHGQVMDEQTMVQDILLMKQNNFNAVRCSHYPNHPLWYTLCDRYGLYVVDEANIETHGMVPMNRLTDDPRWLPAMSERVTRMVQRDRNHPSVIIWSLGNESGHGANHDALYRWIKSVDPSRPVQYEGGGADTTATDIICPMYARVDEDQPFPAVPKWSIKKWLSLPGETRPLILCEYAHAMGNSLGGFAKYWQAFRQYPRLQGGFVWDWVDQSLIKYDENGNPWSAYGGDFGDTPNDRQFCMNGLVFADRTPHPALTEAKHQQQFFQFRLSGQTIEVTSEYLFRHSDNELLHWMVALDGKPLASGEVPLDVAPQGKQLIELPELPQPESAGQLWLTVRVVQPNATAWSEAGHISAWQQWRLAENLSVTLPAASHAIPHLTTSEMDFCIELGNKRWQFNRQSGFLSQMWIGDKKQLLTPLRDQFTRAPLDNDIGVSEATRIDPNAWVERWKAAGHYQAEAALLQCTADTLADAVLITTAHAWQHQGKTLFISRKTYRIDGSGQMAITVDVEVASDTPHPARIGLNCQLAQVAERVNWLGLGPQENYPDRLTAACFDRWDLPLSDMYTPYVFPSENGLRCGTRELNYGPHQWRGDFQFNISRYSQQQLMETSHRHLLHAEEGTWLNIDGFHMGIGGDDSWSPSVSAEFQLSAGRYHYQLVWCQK
Sequence of Nuclear receptor subfamily 5 group A member 2 (O00482 whole entry): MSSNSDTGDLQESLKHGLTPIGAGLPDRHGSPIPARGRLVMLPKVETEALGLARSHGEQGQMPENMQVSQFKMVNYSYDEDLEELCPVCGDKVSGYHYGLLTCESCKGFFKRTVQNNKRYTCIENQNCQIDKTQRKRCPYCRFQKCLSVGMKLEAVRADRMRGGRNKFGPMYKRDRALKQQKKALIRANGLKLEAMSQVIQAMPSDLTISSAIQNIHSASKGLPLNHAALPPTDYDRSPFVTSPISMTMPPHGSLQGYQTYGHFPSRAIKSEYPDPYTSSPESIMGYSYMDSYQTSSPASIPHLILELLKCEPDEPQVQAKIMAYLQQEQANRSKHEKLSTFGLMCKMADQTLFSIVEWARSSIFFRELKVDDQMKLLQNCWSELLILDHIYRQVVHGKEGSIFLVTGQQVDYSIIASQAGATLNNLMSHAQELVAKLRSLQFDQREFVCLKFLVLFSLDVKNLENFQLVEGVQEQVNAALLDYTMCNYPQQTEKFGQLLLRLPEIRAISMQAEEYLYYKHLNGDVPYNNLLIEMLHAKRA

## CCN(CC)CCOc1ccc2c(c1)C(=NO)c1cc(OCCN(CC)CC)ccc1-2
[1]
  EC50: 11.4 µM (inactive)
[2]
  EC50: > 91.1 µM (inactive)
Cells [3]
  EC50: > 350 µM (not active)
[4]
  IC50: > 99 µM (inactive)
INS1
  AC50: 5.22 µM (active)
Cells [5]
  EC50: > 350 µM (not active)

## CCOC(=O)c1ccc(/N=c2\sc(C(=O)OC)cc(=O)n2-c2ccc(C(=O)OCC)cc2)cc1
Melanocortin receptor 4
  IC50: > 64.6 µM (inactive)
Beta-galactosidase
  IC50: > 80 µM (inactive)
[6]
  EC50: 3.42 µM (active)
[7]
  IC50: > 64.6 µM (inactive)

## C[S+]([O-])c1ccc(-c2nc(-c3ccncc3)c(-c3ccc(F)cc3)[nH]2)cc1 (stereo unspecified) [SB-203580]
[8]
  Ki: > 6.31 µM (inactive)
[9]
  Ki: > 1.58 µM (inactive)
[10]
  Ki: > 1.26 µM (inactive)

## CC(=O)c1ccc(OC(C)C(=O)OCC(=O)NCCc2ccccc2)cc1 (stereo unspecified)
[11]
  IC50: 35.9 µM (inactive)
Steroidogenic factor 1
  IC50: 8.19 µM (active)
[12]
  IC50: 9.39 µM (active)

## CCOC(=O)N1CCC(N(CCN(C)C)C(=S)Nc2ccc(Oc3ccccc3)cc2)CC1
[13]
  IC50: 3.17 µM (active)
[14]
  IC50: 0.5 µM (active)
[15]
  IC50: 6.93 µM (active)

## c1ccc(-c2nc3ccccn3c2NC2CCCC2)nc1
Cells [16]
  IC50: 4.27 µM (active)
[17]
  AC50: 87.6 µM (active)
[18]
  CC50: > 20 µM (active)
[19]
  CC50: 28.8 µM (active)

## Cc1ccc2nc(-c3ccccc3)cc(C(=O)N3CC(C)OC(C)C3)c2c1 (stereo unspecified)
[20]
  IC50: 0.0681 µM (active)

## CC1C(=O)N(Cc2cn(Cc3ccco3)nn2)CCS(=O)(=O)N1Cc1ccc(-c2cccnc2)cc1 (stereo unspecified)
[21]
  IC50: 26.6 µM (inactive)
[22]
  IC50: 15.2 µM (active)

## COc1ccc(-c2c[nH]nc2-c2ccc(O)cc2O)cc1
Interleukin-8 [23]
  IC50: 2.62 µM (active)
[24]
  IC50: 43.9 µM (active)
Interleukin-8 [25]
  IC50: 6.94 µM (active)

## Cc1ccccc1C(=O)Nc1cccc(OC(C)C)c1 [MEPRONIL]
[26]
  AC50: 28.2 µM (inconclusive)

## O=C(NCCc1ccccc1)c1ccc(=O)oc1
[27]
  IC50: 144 µM (inactive)
